In patent US20260083851A1 (AVILAR THERAPEUTICS, INC., priority 2022, published 2026):

Target: T1, ASGP receptor (biotinylated ASGPR) (Homo sapiens, UniProt P07306)
T1 construct: biotin (biotinylated)
T1 sequence (P07306 1-291): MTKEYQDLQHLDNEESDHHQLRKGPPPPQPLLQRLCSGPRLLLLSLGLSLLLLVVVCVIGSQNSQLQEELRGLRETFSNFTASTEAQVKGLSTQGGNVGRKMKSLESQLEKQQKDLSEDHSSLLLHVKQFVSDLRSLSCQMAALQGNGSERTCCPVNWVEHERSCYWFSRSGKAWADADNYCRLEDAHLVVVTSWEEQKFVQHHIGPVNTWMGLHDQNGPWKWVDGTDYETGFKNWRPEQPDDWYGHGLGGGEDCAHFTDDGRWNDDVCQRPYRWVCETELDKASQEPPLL
Format: binding
Conditions: SPR, Biacore 8K, 25° C.; Table 1A; read-out: ASGPR KD

O=C(O)c1ccc(N2CCC(CN3CCN(C[C@H]4OC[C@H](Nc5cccc(C(F)(F)F)n5)[C@@H](O)[C@H]4O)CC3)CC2)cc1 [A100, 4-(4-((4-(((2R,3R,4R,5S)-3,4-dihydroxy-5-((6-(trifluoromethyl)pyridin-2-yl)amino)tetrahydro-2H-pyran-2-yl)methyl)piperazin-1-yl)methyl)piperidin-1-yl)benzoic acid]
Kd: < 10 µM

O=C(O)c1ccc(N2CCC(CN3CCN(C[C@H]4OC[C@H](Nc5nc(C(F)(F)F)ccc5F)[C@@H](O)[C@H]4O)CC3)CC2)cc1 [A101, 4-(4-((4-(((2R,3R,4R,5S)-5-((3-fluoro-6-(trifluoromethyl)pyridin-2-yl)amino)-3,4-dihydroxytetrahydro-2H-pyran-2-yl)methyl)piperazin-1-yl)methyl)piperidin-1-yl)benzoic acid]
Kd: < 10 µM

CC(=O)N1C[C@H](Nc2cncc(C(F)(F)F)n2)[C@@H](O)[C@@H](O)C1 [A102, 1-((3S,4R,5S)-3,4-dihydroxy-5-((6-(trifluoromethyl)pyrazin-2-yl)amino)piperidin-1-yl)ethan-1-one]
Kd: < 10 µM

O=C(O)COCCOCC(=O)NC[C@H]1OC[C@H](Nc2cccc(C(F)(F)F)n2)[C@@H](O)[C@H]1O [A103, 2-(2-(2-((((2R,3R,4R,5S)-3,4-dihydroxy-5-((6-(trifluoromethyl)pyridin-2-yl)amino)tetrahydro-2H-pyran-2-yl)methyl)amino)-2-oxoethoxy)ethoxy)acetic acid]
Kd: < 10 µM

OC[C@H]1O[C@H](Cc2ccccc2)[C@@H](Nc2nccc(C(F)(F)F)n2)[C@@H](O)[C@H]1O [A104]
Kd: 10 to 100 µM

OC[C@H]1O[C@H](c2ccccc2)[C@H](Nc2cncc(C(F)(F)F)n2)[C@@H](O)[C@H]1O [A105, (2R,3R,4R,5R,6R)-2-(hydroxymethyl)-6-phenyl-5-((6-(trifluoromethyl)pyrazin-2-yl)amino)tetrahydro-2H-pyran-3,4-diol]
Kd: < 10 µM

O=C(O)COCCOCC(=O)NC[C@H]1OC[C@H](Nc2nccc(C(F)(F)F)n2)[C@@H](O)[C@H]1O [A106, 2-(2-(2-((((2R,3R,4R,5S)-3,4-dihydroxy-5-((4-(trifluoromethyl)pyrimidin-2-yl)amino)tetrahydro-2H-pyran-2-yl)methyl)amino)-2-oxoethoxy)ethoxy)acetic acid]
Kd: < 10 µM

O=C(O)COCCOCC(=O)NC[C@H]1OC[C@H](Nc2ccnc(C(F)(F)F)c2)[C@@H](O)[C@H]1O [A107, 2-(2-(2-((((2R,3R,4R,5S)-3,4-dihydroxy-5-((2-(trifluoromethyl)pyridin-4-yl)amino)tetrahydro-2H-pyran-2-yl)methyl)amino)-2-oxoethoxy)ethoxy)acetic acid]
Kd: < 10 µM

OC[C@H]1OC[C@H](Nc2ccccc2)[C@@H](O)[C@H]1O [A108, (2R,3R,4R,5S)-2-(hydroxymethyl)-5-(phenylamino)tetrahydro-2H-pyran-3,4-diol]
Kd: < 10 µM

OC[C@H]1O[C@@H](c2ccccc2)[C@H](Nc2cncc(C(F)(F)F)n2)[C@@H](O)[C@H]1O [A109, (2R,3R,4R,5R,6S)-2-(hydroxymethyl)-6-phenyl-5-((6-(trifluoromethyl)pyrazin-2-yl)amino)tetrahydro-2H-pyran-3,4-diol]
Kd: 10 to 100 µM

O=C(O)COCCOCC(=O)NC[C@H]1OC[C@H](Nc2nc(C(F)(F)F)ccc2F)[C@@H](O)[C@H]1O [A110, 2-(2-(2-((((2R,3R,4R,5S)-5-((3-fluoro-6-(trifluoromethyl)pyridin-2-yl)amino) 3,4-dihydroxytetrahydro-2H-pyran-2-yl)methyl)amino)-2-oxoethoxy)ethoxy)acetic acid]
Kd: < 10 µM

O=C(O)c1ccc(S(=O)(=O)NC[C@H]2OC[C@H](Nc3cncc(C(F)(F)F)n3)[C@@H](O)[C@H]2O)cc1 [A111, 4-(N-(((2R,3R,4R,5S)-3,4-dihydroxy-5-((6-(trifluoromethyl)pyrazin-2-yl)amino)tetrahydro-2H-pyran-2-yl)methyl)sulfamoyl)benzoic acid]
Kd: < 10 µM
